Source: patent US20160151458A1, “Use Of Unacylated Ghrelin, Fragments And Analogs Thereof As Antioxidant” (ALIZE PHARMA SAS, priority 2013, published 2016)

Key:
[1] = tested on: SCs transfected with anti-miR-221/222; experiment: Loss-of-function: SCs transfected with anti-miR-221/222 antago-miRs; assay type: cell-based, mice; settings: anti-miR-221/222 transfected SCs; data not shown
Procedure: (§1) Total RNA was isolated using TRIzol reagent (Invitrogen) from SCs recovered from muscles of treated animals or from SCs subjected to in-vitro ischemia. miR-221/222 expression was evaluated by qRT-PCR as previously described^48. Loss-of-function experiments were performed in SCs transfected for 48 h with anti-miRNA negative control, anti-miR-221/222 antagonists (Applied Biosystem, Foxter Cyto CA, USA), according to the manufacturer's instructions^48.

healthy volunteers = settings: administered concomitantly with ghrelin; cited from earlier work
[2] = tested on: satellite cells (SCs) from ischemic muscles; experiment: SCs recovered from ischemic muscles of treated mice (ex vivo analysis); assay type: in vivo, C57BL/6J mice
Procedure: (§2) Male C57BL/6J mice (Charles River Lab., Wilmington, Mass., USA) were anesthetized and unilateral hind limb ischemia was induced as described^42. The normo-perfused contralateral limb of each mouse was used as an internal control. After hind-limb ischemia, animals (18 mice per group) were treated by intra-peritoneal injection daily from 0 to day 21 with either saline, AG (100 μg/kg) or UAG (100 μg/kg). In selected experiments, mice received intramuscular injections of pre-miR oligonucleotides (5 mice/group). To induce toxic damage, 100 μl of 1% barium chloride (BaCl2, Sigma Aldrich) was injected unilaterally into the hind limb (9 mice). Mice were treated according to European Guidelines and policies as approved by the University of Turin Ethical Committee.
(§3) SCs were isolated from gastrocnemius muscles of C57BL/6J wild type mice subjected to ischemia or C57BL/6J mice lacking the GHSR1a and ghrelin genes (10 mice, kind gift of Professor M. Tschöp)^39. To obtain SCs, muscle samples were subjected to enzymatic digestion as described^45. In selected experiments, SCs were recovered from normo-perfused muscles and subjected to in-vitro ischemia in presence of saline, AG (1 μmol/L) or UAG (1 μmol/L). In-vitro ischemia was induced by incubating cells in DMEM+2% FCS at 5% CO2/95% N2 humidified atmosphere, yielding 1% O2 concentrations for 24 h^18. The in-vitro ischemia was also performed in the presence of SB202190 (1 μmol/L).
(§4) Cells were lysed and protein detection was obtained as previously described^47. Cells were lysed (50 mmol/L Tris HCl [pH 8.3], 1% Triton X-100, 10 mmol/L PMSF, 100 U/ml aprotinin, 10 μmol/L leupeptin) and protein concentrations were obtained as previously described^47. […] Densitometric analysis was used to calculate the differences in the fold induction of protein levels and normalized to tubulin, a actin or p38MAPK content. Values are reported as relative amount
(§5) Intracellular ROS production was evaluated using DCF-DA (5-(and-6)-carboxy-2′,7′-dichlorofluorescein diacetate, […] final concentration) (Molecular Probe, Invitrogen) assay as previously described^23. The formation of TBARS was determined in muscles using the OXI-TEK kit (ZeptoMetrix Corp.) and a luminescence spectrometer (Bio-Rad Laboratories, Hercules, Calif.) with excitation set at 530 nm, emission at 550 nm to measure in-vivo oxidative stress levels^33.
as §1

[3] = tested on: unilateral hind limb ischemia in C57BL/6J mice (ischemic gastrocnemius muscle); experiment: Murine hind-limb ischemia model; assay type: in vivo; settings: for Pax-7/MyoD+ cells in ischemic muscles: FIG. 2A
Procedure: as §2
Semiquantitative estimation (by repeated measures analyzed with ANOVA and Newman-Keuls Multiple Comparison test) of foot damage was performed serially using the following classification: 3=dragging of foot (foot necrosis), 2=no dragging but no plantar flexion (foot damage), 1=plantar flexion but no toe flexion (toe damage), and 0=flexing the toes to resist gentle traction on the tail (no damage)^43.
(§6) Gastrocnemius muscle sections from ischemic or normo-perfused limbs were stained with hematoxylin and eosin for histological analysis. The proportion of fibers with central nuclei (regenerating fibers) was measured by MetaMorph software (Life Sciences Research Imaging Systems) in the injured area and the cross-sectional areas of the fibers in the injured and non-injured areas. For IF analysis, muscle sections were processed as described previously^44. The number of cells expressing the indicated markers or CD31 positive vessels was evaluated as previously described^34.
as §5

GHSR-1a = GHSR-1a (Homo sapiens, UniProt Q92847); settings: at physiological concentrations; cited from earlier work
[4] = tested on: SCs transfected with SOD-2 siRNA; experiment: In-vitro ischemia of SCs silenced for SOD-2 by siRNA; assay type: cell-based, C57BL/6J mice
Procedure: as §3
(§7) SC cell-cycle progression was evaluated by evaluating the percentage of PCNA-positive cells or by FACS analysis as previously described^46. The percentage of cells in each cell cycle phase was determined by ModFit LT software (Verity Software House. Inc, topsham, ME, USA). Celss proliferation was also assayed by evaluating the percentage of PCNA-positive cells by FACS analysis.
as §4, §5, §1
To obtain SOD-2 inactivation, SCs were transiently transfected with siRNA for SOD-2 or with duplex siRNAs (Qiagen, Valencia, Calif., USA) as previously described^44. Transfection was performed according to the manufacturer's instructions. Whole cell extracts were processed 48 h after transfection. Cell viability was evaluated at the end of each experiment.

primary SCs = experiment: In-vitro ischemia of primary SCs from normo-perfused muscles; assay type: cell-based, C57BL/6J mice; settings: 1 μmol/L, 1% O2 24 h
Procedure: as §3, §7, §4, §5, §1

SCs from double KO mice = experiment: In-vitro ischemia of SCs from double KO mice lacking the GHSR1a and ghrelin genes; assay type: cell-based, C57BL/6J mice lacking the GHSR1a and ghrelin genes
Procedure: as §3, §7, §4, §5

[5] = tested on: C2C12 mouse muscular cell line; experiment: ROS production (DCF-DA) in C2C12 cells under oxidative stress; assay type: cell-based; settings: 1 μmol/L; stress by hypoxia (1% O2), AGEs, hyperglycemia (25 mM) or H2O2; FIG. 8
Procedure: Kinetic analysis of ROS production was evaluated by using DCF-DA (5-(and-6)-carboxy-2′,7′-dichlorofluorescein diacetate, 0.5 μmol/L final concentration) (Molecular Probe, Invitrogen) assay. C2C12 cells were cultured with 400 μg/ml Advanced Glycated End-product (AGE) or 25 mM glucose (high glucose HG) for 48 h, H2O2 (100 μM) for 2 h. In parallel experiments C2C12 cells were subjected to hypoxia (DMEM+2% FCS in a 5% CO2-95% N2 humidified atmosphere, yielding to 1% O2 concentrations for 24 h). UAG (1 μmol/L) AZP 531 (1 μmol/L) or AZP-502 (1 μmol/L) was added where indicated.

[6] = tested on: BaCl2-injected gastrocnemius muscles of C57BL/6J mice; experiment: Toxic muscle damage induced by 1% barium chloride (BaCl2); assay type: in vivo; settings: 1% BaCl2; FIG. 3E
Procedure: as §2, §6

GHSR-1a, sequence (Q92847 whole entry): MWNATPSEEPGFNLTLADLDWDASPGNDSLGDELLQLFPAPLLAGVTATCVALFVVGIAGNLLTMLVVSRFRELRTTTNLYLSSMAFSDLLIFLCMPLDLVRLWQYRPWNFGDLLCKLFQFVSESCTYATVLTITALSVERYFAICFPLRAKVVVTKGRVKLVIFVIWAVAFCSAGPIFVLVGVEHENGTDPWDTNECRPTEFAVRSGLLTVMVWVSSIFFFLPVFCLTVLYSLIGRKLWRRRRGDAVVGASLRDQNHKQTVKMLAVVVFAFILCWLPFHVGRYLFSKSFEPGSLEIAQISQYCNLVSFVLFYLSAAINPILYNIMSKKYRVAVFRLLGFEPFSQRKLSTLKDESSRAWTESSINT

Question: Which “cell-cycle entry and expression of SOD-2, Pax-7, MyoD, myogenin” value [1] does the source give for “Gly-Ser-Ser-Phe-Leu-Ser-Pro-Glu-His-Gln-Arg-Val-Gln-Gln-Arg-Lys-Glu-Ser-Lys-Lys-Pro-Pro-Ala-Lys-Leu-Gln-Pro-Arg (GSSFLSPEHQRVQQRKESKKPPAKLQPR; listed as Homo sapiens) [UAG]” here?
Answer: no longer had any effect

Question: And the p-p38/MAPK levels [1]?
Answer: p-p38/MAPK levels were reduced

Question: And the “effect on the hyperglycemic effects of ghrelin” value (healthy volunteers)?
Answer: prevent the hyperglycemic effects of ghrelin

Question: And the “expression of miR-221 and miR-222 in SCs (qRT-PCR)” value ([2]; SCs from muscles of treated mice vs controls, FIG. 6A)?
Answer: significantly increased

Question: And the “ROS production in SCs (DCF-DA)” value ([2]; SCs from treated mice, FIG. 3B)?
Answer: ROS production was lower

Question: What about the “SOD-2 protein expression in SCs” value ([2]; SCs from treated mice, Western blot, FIG. 3C) of the same substance?
Answer: SOD-2 protein expression higher

Question: And the “phospho(p)-p38/MAPK protein level in SCs” value ([2]; Western blot, FIG. 2C)?
Answer: found to be higher

Question: What about the “number of isolated Pax-7/MyoD/Myf5+ SCs” value ([2]; ex vivo, FIGS. 2B-2D) of the same substance?
Answer: significantly increased number of Pax-7/MyoD/Myf5+SCs

Question: And the “protection against ischemia-induced damage (overall in vivo effect)” value ([3]; 100 μg/kg i.p. daily)?
Answer: protect against ischemia-induced damage

Question: And the “foot damage (functional score)” value ([3]; 100 μg/kg i.p. daily from day 0, FIG. 1A)?
Answer: damage was significantly higher in saline- and AG-treated groups than in the UAG-treated group

Question: And the “capillary density, ischemic vs contralateral control muscles of the same animals” value ([3]; 100 μg/kg i.p. daily, FIG. 1B)?
Answer: no such differences were observed

Question: And the “number of functional vessels in ischemic muscles” value ([3]; 100 μg/kg i.p. daily, FIG. 1B)?
Answer: larger number of functional vessels

Question: What about the CD68-positive inflammatory cells ([3]; 100 μg/kg i.p. daily, FIG. 1E) of the same substance?
Answer: reduced number of CD68-positive inflammatory cells

Question: What about the “regenerating myofibers in gastrocnemius muscles” value ([3]; 100 μg/kg i.p. daily, FIGS. 1C, 1D) of the same substance?
Answer: increased number of regenerating myofibers

Question: And the “myogenin-positive cells in ischemic muscles” value ([3]; FIGS. 2E, 2F)?
Answer: increased number of myogenin-positive cells

Question: And the “Pax-7/MyoD+ cells in ischemic muscles” value ([3]; day 7)?
Answer: increased number of Pax-7/MyoD+ cells

Question: What about the “Pax-7/MyoD+ cells in ischemic muscles” value ([3]; day 21) of the same substance?
Answer: scattered Pax-7/MyoD+ cells were still present

Question: What about the “SOD-2/Pax-7+ cells in ischemic muscle” value ([3]; double immunostaining, day 7, FIG. 3D) of the same substance?
Answer: increased number of SOD-2/Pax-7+ cells

Question: And the “binding to GHSR-1a” value (GHSR-1a)?
Answer: fails to bind

Question: What about the “UAG-induced miR-221/222 expression” value ([4]; SOD-2 knock-down, FIG. 7B) of the same substance?
Answer: SOD-2 knock-down prevents UAG-induced miR-221/222 expression

Question: What about the “protection against ROS generation” value ([4]; SOD-2 silenced, FIG. 5B) of the same substance?
Answer: did not protect SCs against ROS generation

Question: What about the cell-cycle progression ([4]; SOD-2 silenced, FIG. 5C) of the same substance?
Answer: the cells did not undergo cell-cycle progression

Question: What about the p38/MAPK phosphorylation ([4]; SOD-2 silenced, FIG. 5D) of the same substance?
Answer: did not induce p38/MAPK phosphorylation

Question: And the PCNA expression (primary SCs; FACS, FIG. 4D)?
Answer: increased PCNA expression

Question: And the “number of cells in S phase” value (primary SCs; FACS, FIG. 4E)?
Answer: increased

Question: What about the pp38/MAPK level (primary SCs; FIG. 4C) of the same substance?
Answer: increased levels of pp38/MAPK

Question: What about the “ROS production (DCF-DA)” value (primary SCs; FIG. 4F) of the same substance?
Answer: ROS production was decreased

Question: What about the SOD-2 expression (primary SCs; FIG. 4G) of the same substance?
Answer: SOD-2 expression increased

Question: What about the “expression of Pax-7, MyoD and myogenin” value (primary SCs; FIGS. 4A, 4B) of the same substance?
Answer: only UAG challenge induced expression

Question: What about the SC cell-cycle progression (SCs from double KO mice; FIG. 5G) of the same substance?
Answer: only UAG promoted SC cell-cycle progression

Question: And the SOD-2 expression (SCs from double KO mice; FIG. 5I)?
Answer: induced SOD-2 expression

Question: And the “protection from ROS generation” value (SCs from double KO mice; FIG. 5J)?
Answer: protected SCs from ROS generation

Question: And the “p-p38/MAPK, Pax-7, MyoD, Myf5 and myogenin expression” value (SCs from double KO mice; FIGS. 5H, 5I)?
Answer: induced p-p38/MAPK, Pax-7, MyoD, Myf5 and myogenin expression

Question: What about the “protection against oxidative stress (ROS production)” value [5] of the same substance?
Answer: have a protective effect on C2C12 cells against oxidative stress

Question: What about the “regeneration of skeletal muscle after ROS-independent toxic damage” value [6] of the same substance?
Answer: regeneration of skeletal muscle was no longer observed
